Measurements reported in ChEMBL document CHEMBL4007491, “Structure-based drug design of novel ASK1 inhibitors using an integrated lead optimization strategy” (Bioorg Med Chem Lett, 2017).
pEC50, pIC50: −log10 of the molar value.

Tests used:
[1] = molecular target: T1, Mitogen-activated protein kinase kinase kinase 5 (Homo sapiens, UniProt Q99683); experiment: Inhibition of ASK1 (unknown origin) assessed as reduction in JNK phosphorylation by cell based assay
T1 sequence (Q99683 whole entry): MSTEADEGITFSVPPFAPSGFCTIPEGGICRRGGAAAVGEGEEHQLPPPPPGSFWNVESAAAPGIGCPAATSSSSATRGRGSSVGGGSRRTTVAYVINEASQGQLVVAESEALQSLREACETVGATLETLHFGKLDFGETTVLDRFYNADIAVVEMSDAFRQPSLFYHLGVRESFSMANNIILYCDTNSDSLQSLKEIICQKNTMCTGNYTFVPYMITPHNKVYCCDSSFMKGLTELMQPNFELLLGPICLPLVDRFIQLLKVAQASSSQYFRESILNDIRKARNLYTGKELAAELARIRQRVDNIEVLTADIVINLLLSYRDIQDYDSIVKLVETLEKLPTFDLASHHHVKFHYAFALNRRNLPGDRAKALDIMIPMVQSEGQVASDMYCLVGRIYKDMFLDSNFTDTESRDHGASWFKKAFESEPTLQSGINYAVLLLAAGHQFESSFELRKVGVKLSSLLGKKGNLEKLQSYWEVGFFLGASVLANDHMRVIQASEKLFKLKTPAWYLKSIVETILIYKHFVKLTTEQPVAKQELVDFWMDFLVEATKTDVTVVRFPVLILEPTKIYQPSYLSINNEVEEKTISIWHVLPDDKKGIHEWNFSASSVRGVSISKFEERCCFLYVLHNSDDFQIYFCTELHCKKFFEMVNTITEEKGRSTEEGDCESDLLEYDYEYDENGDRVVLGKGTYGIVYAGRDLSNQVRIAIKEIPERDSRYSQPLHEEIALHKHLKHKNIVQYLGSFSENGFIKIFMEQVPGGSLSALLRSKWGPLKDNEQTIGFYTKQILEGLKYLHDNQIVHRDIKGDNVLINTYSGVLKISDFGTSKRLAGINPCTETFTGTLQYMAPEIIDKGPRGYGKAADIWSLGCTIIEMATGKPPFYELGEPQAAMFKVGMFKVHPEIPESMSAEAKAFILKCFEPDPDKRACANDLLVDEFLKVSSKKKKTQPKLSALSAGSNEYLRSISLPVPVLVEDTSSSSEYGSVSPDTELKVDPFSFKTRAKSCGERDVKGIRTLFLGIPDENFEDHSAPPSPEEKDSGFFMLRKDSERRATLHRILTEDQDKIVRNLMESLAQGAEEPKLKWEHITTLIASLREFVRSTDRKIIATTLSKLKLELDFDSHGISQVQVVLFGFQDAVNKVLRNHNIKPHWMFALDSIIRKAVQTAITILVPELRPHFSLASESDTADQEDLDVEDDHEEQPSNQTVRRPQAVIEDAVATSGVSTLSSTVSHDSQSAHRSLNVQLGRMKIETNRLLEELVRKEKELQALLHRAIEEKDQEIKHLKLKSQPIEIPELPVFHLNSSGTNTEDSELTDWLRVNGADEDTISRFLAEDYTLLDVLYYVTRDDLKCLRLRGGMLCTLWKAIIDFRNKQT

[2] = molecular target: Cyclin-dependent kinase 2 (Homo sapiens, UniProt P24941); experiment: Inhibition of CDK2 (unknown origin)

COCCn1cc(NC(=O)c2csc(-c3nncn3C(C)C)n2)cn1
pEC50 [1]: 7.22
pIC50 [2]: 6.00
